{"source": "patent US11426350B1", "about": "“Reducing the environmental impact of farming using biochar” (Carbon Technology Holdings, LLC, priority 2014, dated 2022)", "origin": "cited, not measured here", "system": "E. coli O157:H7", "data": [{"substance": "Lactobacillus rhamnosus GG", "values": [{"measurement": "E. coli O157:H7-induced lesions in Caco-2 cells", "result": "prevent"}]}]}
